This is an account of results in PubChem BioAssay AID743457 (The Scripps Research Institute Molecular Screening Center, 2014).

The source made the active and inactive calls.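 How the source made its calls: active means IC50 at or below a set limit; inactive means IC50 above that limit.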

A word on the IC50: it is the midpoint of a concentration-inhibition curve.

This experiment deals with Group 3 secretory phospholipase A2 (Homo sapiens) (UniProt Q9NZ20). Description: HGIII-sPLA2 enzyme inhibition potency – biochemical, QFRET, IC50, dose response (AID 743457). As to conditions: recombinant hGIII-sPLA2, BODIPY PC-A2 QFRET fluorescence.
Sequence of Group 3 secretory phospholipase A2 (Homo sapiens) (Q9NZ20 whole entry, looked up): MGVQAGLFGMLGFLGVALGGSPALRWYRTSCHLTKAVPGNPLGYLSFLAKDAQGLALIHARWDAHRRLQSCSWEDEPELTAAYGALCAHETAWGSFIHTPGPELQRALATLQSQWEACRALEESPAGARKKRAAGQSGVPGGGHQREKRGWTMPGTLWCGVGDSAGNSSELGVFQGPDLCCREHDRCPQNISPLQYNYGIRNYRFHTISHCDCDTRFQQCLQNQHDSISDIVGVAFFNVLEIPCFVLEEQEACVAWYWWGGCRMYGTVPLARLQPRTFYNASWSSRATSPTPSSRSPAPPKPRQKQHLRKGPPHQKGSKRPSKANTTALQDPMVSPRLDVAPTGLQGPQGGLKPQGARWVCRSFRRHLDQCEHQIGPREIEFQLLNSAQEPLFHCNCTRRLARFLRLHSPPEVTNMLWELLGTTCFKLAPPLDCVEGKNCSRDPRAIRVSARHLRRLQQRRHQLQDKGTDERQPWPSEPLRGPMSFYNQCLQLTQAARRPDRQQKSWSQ

As to `COc1ccc(C(=O)NNC(=S)NC(=O)c2cccs2)cc1`, the IC50 entry was “inactive”.
As for `O=C1c2ccccc2C(=O)c2c(NCCCN(CCO)CCO)cccc21`, the figure is > 122 µM (inactive); as for `CC(C)CC(=O)NC(=S)NNC(=O)c1ccc(NC(=O)C2CCCCC2)cc1`, > 122 µM (inactive); as for `Cc1ccccc1C(=O)NNC(=S)NC(=O)c1cccs1`, > 40.6 µM (inactive).
Consider `CNC(=S)N/N=C/c1cc(Br)cc(Br)c1O`, for which the IC50 was > 122 µM (inactive).
For `COc1ccc(C(=O)NC(=S)NNC(=O)c2c(-c3ccccc3)noc2C)cc1OC` the value was > 122 µM (inactive).
As for `C=CCS/C(N)=N\N=C\c1cc(Br)cc([N+](=O)[O-])c1O`, the figure is > 40.6 µM (inactive); as for `C/C(=N\NC(=S)NCC(C)(C)C)c1cc(F)cc(F)c1O`, > 122 µM (inactive).
As for `O=C(N/N=C/c1cc(Cl)cc([N+](=O)[O-])c1O)C(O)(c1ccccc1)c1ccccc1`, the entry is “inactive”; as for `CNC(=S)NN=C(C)c1ccc(OC)cc1O`, > 122 µM (inactive).
`C/C(=N\NC(=O)c1nnn(-c2nonc2N)c1CN(C)c1ccccc1)c1ccccc1O`: the IC50 result is “inactive”.
As for `CC(C)(C)c1csc(NNC(=O)c2ccc(Br)cc2)n1`, the figure is > 122 µM (inactive).
As for `Cc1ccc2sc(NNC(=O)c3ccc4c(c3)OCCO4)nc2c1C`, the entry is “inactive”.
For `CCCC[n+]1c2ccccc2cc2ccccc21` the value was “inactive”; for `O=[N+]([O-])c1ccc(O)c(N=Cc2sc3ccccc3c2O)c1`, > 122 µM (inactive).
On to `CCC(C)N1C(=O)/C(=C\c2cc3c4c(c2)CCCN4CCC3)C(=O)NC1=S` (stereo not drawn), for which the IC50 entry was “inactive”.
As for `O=C(CCN1C(=O)/C(=C/c2ccccc2Cl)SC1=S)NNC(=O)c1ccccc1O`, the entry is “inactive”; as for `COc1ccc2nc(Nc3nc4cc5c(cc4s3)OCO5)sc2c1`, “inactive”.
